Like-named read-outs stand apart in the source and are kept apart here.
Legend:
TLR9 = biological target: T1, TLR9 (Homo sapiens, UniProt Q9NR96); assay: TLR9 dependent cell responses (statement in description); assay type: cell-based
T1 sequence (Q9NR96 26-1032): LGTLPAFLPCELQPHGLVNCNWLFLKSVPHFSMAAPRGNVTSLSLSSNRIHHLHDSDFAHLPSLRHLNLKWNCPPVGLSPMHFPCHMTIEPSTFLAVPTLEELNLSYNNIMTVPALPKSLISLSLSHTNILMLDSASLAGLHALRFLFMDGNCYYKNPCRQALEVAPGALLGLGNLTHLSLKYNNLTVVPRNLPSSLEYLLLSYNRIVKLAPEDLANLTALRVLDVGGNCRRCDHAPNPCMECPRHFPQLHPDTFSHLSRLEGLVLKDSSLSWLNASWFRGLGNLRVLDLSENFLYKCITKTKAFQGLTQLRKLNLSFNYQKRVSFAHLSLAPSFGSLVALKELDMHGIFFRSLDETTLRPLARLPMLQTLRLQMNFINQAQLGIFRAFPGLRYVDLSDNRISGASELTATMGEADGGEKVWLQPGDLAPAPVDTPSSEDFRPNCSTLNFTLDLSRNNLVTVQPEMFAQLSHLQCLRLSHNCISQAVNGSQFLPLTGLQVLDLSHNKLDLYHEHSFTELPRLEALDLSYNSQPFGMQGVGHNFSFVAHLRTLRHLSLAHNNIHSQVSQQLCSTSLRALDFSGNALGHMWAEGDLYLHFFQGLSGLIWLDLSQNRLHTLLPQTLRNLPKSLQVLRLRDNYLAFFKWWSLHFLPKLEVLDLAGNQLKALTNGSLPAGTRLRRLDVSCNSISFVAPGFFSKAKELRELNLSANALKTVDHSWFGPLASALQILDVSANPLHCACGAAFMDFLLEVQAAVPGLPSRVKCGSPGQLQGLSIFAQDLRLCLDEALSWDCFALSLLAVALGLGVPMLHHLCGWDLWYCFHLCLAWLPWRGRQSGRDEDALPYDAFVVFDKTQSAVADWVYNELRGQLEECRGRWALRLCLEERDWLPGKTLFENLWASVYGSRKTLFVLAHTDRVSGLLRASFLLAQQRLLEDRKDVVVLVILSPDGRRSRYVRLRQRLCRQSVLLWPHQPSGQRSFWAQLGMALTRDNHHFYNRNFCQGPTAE

TLR7 [1] = biological target: T2, TLR7 (Homo sapiens, UniProt Q9NYK1); assay: TLR7 dependent cell responses (statement in description); assay type: cell-based
T2 sequence (Q9NYK1 27-1049): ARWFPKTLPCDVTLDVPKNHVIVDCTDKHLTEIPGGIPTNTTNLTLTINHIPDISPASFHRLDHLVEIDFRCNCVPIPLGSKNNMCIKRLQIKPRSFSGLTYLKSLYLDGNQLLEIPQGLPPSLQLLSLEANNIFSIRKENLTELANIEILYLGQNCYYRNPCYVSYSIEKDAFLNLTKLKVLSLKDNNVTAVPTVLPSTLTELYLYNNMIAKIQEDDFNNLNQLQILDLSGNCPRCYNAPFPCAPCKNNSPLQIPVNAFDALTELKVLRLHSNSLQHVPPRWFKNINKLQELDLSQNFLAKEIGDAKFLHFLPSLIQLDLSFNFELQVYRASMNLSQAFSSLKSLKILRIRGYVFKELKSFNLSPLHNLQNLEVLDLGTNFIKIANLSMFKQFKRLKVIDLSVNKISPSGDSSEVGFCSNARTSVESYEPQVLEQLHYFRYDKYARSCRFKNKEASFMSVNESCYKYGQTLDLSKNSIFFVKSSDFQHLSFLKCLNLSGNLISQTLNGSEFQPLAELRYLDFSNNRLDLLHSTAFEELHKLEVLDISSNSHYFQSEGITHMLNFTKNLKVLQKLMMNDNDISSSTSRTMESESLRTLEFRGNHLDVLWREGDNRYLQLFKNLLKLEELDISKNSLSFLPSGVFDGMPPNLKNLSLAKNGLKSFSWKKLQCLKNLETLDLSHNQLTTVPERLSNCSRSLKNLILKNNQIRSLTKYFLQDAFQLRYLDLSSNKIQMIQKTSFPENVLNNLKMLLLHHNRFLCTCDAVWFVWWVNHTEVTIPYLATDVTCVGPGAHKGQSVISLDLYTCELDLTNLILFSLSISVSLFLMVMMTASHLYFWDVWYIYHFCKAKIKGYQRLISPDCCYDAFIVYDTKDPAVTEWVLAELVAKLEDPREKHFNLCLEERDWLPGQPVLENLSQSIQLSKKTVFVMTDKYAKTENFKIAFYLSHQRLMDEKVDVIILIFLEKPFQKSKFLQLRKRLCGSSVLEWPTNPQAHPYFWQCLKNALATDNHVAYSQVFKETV

TLR7 [2] = biological target: T3, TLR7 (Mus musculus, UniProt P58681); assay: Mouse splenocytes stimulated with R848 (TLR7 ligand), IL-6 by immunoassay; assay type: cell-based
T3 construct: The dispersed splenocytes were pelleted by centrifugation, then resuspended in fresh medium; endogenous in cells; host or cells: primary splenocytes of BALB/c mice
T3 sequence (P58681 27-1050): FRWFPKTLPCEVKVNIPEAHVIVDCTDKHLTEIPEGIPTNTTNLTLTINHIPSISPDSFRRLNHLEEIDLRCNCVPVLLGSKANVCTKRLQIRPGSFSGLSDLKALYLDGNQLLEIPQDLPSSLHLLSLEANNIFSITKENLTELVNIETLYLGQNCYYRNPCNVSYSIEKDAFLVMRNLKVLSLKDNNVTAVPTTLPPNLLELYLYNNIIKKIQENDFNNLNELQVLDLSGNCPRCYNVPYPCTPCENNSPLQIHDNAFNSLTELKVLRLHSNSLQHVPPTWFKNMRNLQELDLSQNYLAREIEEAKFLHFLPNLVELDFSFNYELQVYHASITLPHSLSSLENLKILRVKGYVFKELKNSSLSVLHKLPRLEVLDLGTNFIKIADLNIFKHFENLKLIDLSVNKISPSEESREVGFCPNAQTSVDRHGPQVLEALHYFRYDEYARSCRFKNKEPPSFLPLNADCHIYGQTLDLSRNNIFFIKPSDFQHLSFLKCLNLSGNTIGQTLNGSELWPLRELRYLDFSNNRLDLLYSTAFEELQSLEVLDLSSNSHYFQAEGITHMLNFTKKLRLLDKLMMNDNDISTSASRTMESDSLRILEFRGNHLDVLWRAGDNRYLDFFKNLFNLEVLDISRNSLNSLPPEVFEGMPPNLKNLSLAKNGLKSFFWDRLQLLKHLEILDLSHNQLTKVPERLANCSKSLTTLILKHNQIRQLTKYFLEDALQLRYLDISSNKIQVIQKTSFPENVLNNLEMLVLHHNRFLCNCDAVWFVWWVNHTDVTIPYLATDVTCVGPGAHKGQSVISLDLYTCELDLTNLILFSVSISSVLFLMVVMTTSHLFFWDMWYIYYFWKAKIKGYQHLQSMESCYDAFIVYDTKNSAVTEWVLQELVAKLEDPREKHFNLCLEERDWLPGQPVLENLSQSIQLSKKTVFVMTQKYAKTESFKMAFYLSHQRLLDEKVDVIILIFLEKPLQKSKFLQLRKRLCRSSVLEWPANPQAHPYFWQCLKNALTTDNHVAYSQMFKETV
Method: Modified and unmodified immunoregulatory polynucleotides (IRPs) (i.e., polynucleotides containing at least one modified or unmodified IRS) or control samples were assayed for immunoregulatory (IR) activity of innate immune responses on human and mouse cells.
For mouse cell assays, spleens from 6-12 week-old BALB/c mice spleen were harvested and mechanically dispersed by forcing the digested fragments through metal screens. The dispersed splenocytes were pelleted by centrifugation, then resuspended in fresh medium (RPMI 1640 with 10% fetal calf serum, plus 50 units/mL penicillin, 50 μg/mL streptomycin, 2 mM glutamine, and 0.05 mM β-mercaptoethanol). In a dose-dependent manner, the cells were then stimulated with […] of 1018 ISS (TLR9 ligand; 5′-[…]-3′ (SEQ ID NO:122)) or 1 μM of R848 (TLR7 ligand; a small molecule, an imidazoquinoline also called resiquimod) either alone or in the presence of the tested IRPs. At 48 hours, supernatants were collected and cytokine levels, IL-6, were measured using immunoassays. […]

[3] = Solubility of spacer measured as dialcohol precursor; assay type: physicochemical; details: dodecyl spacer measured as dialcohol precursor
Method: Thus, the definition of spacers excludes microcarriers or nanocarriers. In addition, a spacer moiety that has low solubility, such as a dodecyl spacer (solubility <5 mg/ml when measured as dialcohol precursor 1,12-dihydroxydodecane) is not preferred because it can reduce the hydrophilicity and activity of the IRC. Preferably, spacer moieties have solubility much greater than 5 mg/ml (e.g., 20 mg/ml, ≦50 mg/ml or 100 mg/ml) when measured as dialcohol precursors.

[4] = test system: plasmacytoid dendritic cells (PDCs); assay type: cell-based, human; details: read-out: concentration of hydroxycortisone necessary to achieve 50% death of PDCs

Compound | TLR9 dependent cell responses (TLR9) | TLR7 dependent cell responses (TLR7 [1]) | also measured
5′-TCCTGGAGGGGTTGT-3′ (chemistry not given here) [SEQ ID NO:17] | greater inhibitory activity |  | 
5′-TGCTTGCAAGCTAGCAAGCA-3′ (chemistry not given here) [SEQ ID NO:33] |  | inhibits | 
5′-TGCTTGCAAGCTAGCAAGCA-HEG-TCCTGGAGGGGTTGT-3′ (TGCTTGCAAGCTAGCAAGCATCCTGGAGGGGTTGT; Two nucleotide segments joined by a hexaethylene glycol (HEG) spacer, nucleotide chemistry not given here) [SEQ ID NO:68] | very active in inhibiting | very active in inhibiting | 
5′-TGCTTGCAAGCTTGCAAGCA-3′ (chemistry not given here) [SEQ ID NO:27] |  | inhibits | 
5′-TGCTTGCAAGCTTGCTAGCA-3′ (chemistry not given here) [SEQ ID NO:34] | The same is also true | The same is also true | 
5′-TGCTTGCAAGCTTGCTAGCA-HEG-TCCTGGAGGGGTTGT-3′ (TGCTTGCAAGCTTGCTAGCATCCTGGAGGGGTTGT; Two nucleotide segments joined by a hexaethylene glycol (HEG) spacer, nucleotide chemistry not given here) [SEQ ID NO:69] | The same is also true | The same is also true | 
5′-UGC UCC UGG AGG GGU UGU-3′ (DNA UGCUCCUGGAGGGGUUGU; all 2'-O-methyl, backbone not given here) [SEQ ID NO:135, all nucleotides modified with a 2′-O-Me modification] |  |  | IL-6 levels compared to unmodified SEQ ID NO:123 (TLR7 [2]): significant decrease
OCCCCCCCCCCCCO [1,12-dihydroxydodecane] |  |  | solubility [3]: < 5000 µg/mL
C[C@]12CCC(=O)C=C1CC[C@@H]1[C@@H]2[C@@H](O)C[C@@]2(C)[C@H]1CC[C@]2(O)C(=O)CO [hydroxycortisone, reference compound] |  |  | EC50 ([4]; in the presence of CpG-C ISS C274): 2000 nM; EC50 ([4]; in the presence of HSV (HSV-1 KOS strain)): 150 nM; EC50 ([4]; in the presence of HSV and SEQ ID NO:123): 4 nM; EC50 ([4]; in the presence of influenza virus and SEQ ID NO:123): 22 nM; EC50 ([4]; in the presence of influenza virus): 4500 nM; EC50 ([4]; in the presence of the ISS and SEQ ID NO:123): 85 nM

— patent US9476053B2, “Methods and compositions for inhibition of immune responses and autoimmunity” (Dynavax Technologies Corporation, priority 2007, dated 2016)
